Here are results for nine molecules from PMC10987480, “Biological and mutational analyses of CXCR4–antagonist interactions and design of new antagonistic analogs” (Bioscience Reports, 2023).

Where two headings read alike, the source gives them in different places. Positions of bridges follow the written chain, without caps; N, C: chain ends. Non-standard residues stand in square brackets, D forms with d. Residues, ends and D or L forms follow the SMILES beside them. 2Nal = N[C@@H](Cc1ccc2ccccc2c1)C(=O)O; d2Nal = N[C@H](Cc1ccc2ccccc2c1)C(=O)O; Cit = NC(=O)NCCC[C@H](N)C(=O)O Some results are limits rather than exact numbers.

Test [1] addresses T1, CXCR4 (Homo sapiens, UniProt P61073). The experiment in a line: Competitive CXCR4 binding assay (12G5 antibody probe), wild-type CXCR4 transfected CHO cells. Details: expressed in transfected cells. How it is done: The CXCR4-specific antibody, 12G5 was used as a probe for the competitive CXCR4 binding assay to evaluate the binding activity of CXCR4 antagonists.
Figure 1 Competitive CXCR4 binding curves of eleven CXCR4 antagonists The CXCR4 transfected CHO cells were incubated with different concentrations of antagonists and 250 ng/ml 12G5 antibody. The CXCR4-binding 12G5 antibody was recognized by FITC-conjugated anti-IgG second antibody. The cells treated with only second antibody were used as a negative control (0%) while cells treated with both 12G5 antibody and second antibody were used as a positive control (100%). Cells treated with CXCR4 antagonists were calculated in percentage relative to the positive and negative controls. The data were averages of at least three independent experiments and shown as mean ± standard error of the mean (S.E.M.).
(§1) The procedure for the CXCR4 competitive binding experiments was published previously. Briefly, CXCR4 antibody 12G5 (250 ng/ml) was incubated with 5 × 10^5 cells and varying concentrations of unlabeled compounds in a final volume of 100 μl of assay buffer (PBS with 0.5% BSA and 0.05% NaN3) in 96-well plates for 40 min on ice, after being washed with assay buffer once. The cells were incubated with FITC-conjugated second antibody IgG for 30 min on ice, then washed with assay buffer three times. The fluorescence intensity was measured for excitation at 485 nm and emission at 535 nm using multimode plate reader (PerkinElmer). The IC50 values were calculated using graphpad Prism 7. Experiments were performed at least three times.

Test [2] has as its target T1, CXCR4. Briefly: SDF-1α-induced cell migration assay in SupT1 cells (transwell). Conditions: 2 nM SDF-1α, 30 min pre-incubation, 3 h migration; for inhibition at 40 µM: SUP-T1, at 40 μM. Type of test: cell-based. Details: host or cells: SupT1 cells. How it is done: (§2) Figure 2 The inhibitory effect of the antagonists on SDF-1α-induced cell chemotaxis and calcium mobilization in SupT1 cells The antagonists and concentrations used were labeled in each lane. (A) The inhibition of cell migration by the noted antagonists. SupT1 cells pre-treated with or without CXCR4 antagonists were seeded in the upper well and cell migrated by 2 nM SDF-1α. Migrated cells without SDF-1α were used as a negative (0%) and migrated cell induced by SDF-1α as a positive control (100%). […] SupT1 cells were treated with or without CXCR4 antagonists and activated by 50 nM SDF-1α. To directly compare the inhibitory effect of the antagonists on calcium mobilization, the vehicle background and baseline were removed using GraphPad and Origin. The data were averages of at least three independent experiments.
SupT1 cells (2 × 10^6 cells per well in 75 μl) were collected and washed using assay buffer (RPMI 1640 supplemented with 0.5% BSA) and incubated with various concentrations of tested compounds for 30 min in the upper well of the transwell-96 well plates with 5.0 µm pore polycarbonate membrane insert (Corning, U.S.A.). Then, 200 μl assay buffer containing 2 nM SDF-1α was added to the lower well and cells were allowed to migrate for 3 h. Migrated cells were measured using celltiter-96 reagent.

Test [3] addresses T1, CXCR4. The experiment in a line: SDF-1α-induced calcium mobilization assay in SupT1 cells (Fluo-4). The format is cell-based. Set-up: host or cells: SupT1 cells. Conditions: for inhibition at 10 µM: SUP-T1, at 10 μM, 50 nM SDF-1α, read-out: Inhibition of the calcium signal. How it is done: as §2
SupT1 cells were collected and washed using HHBS buffer (Hanks’ Balanced Salt solution supplemented with 20 mM HEPES) and incubated with 1 mM probenecid (Energy Chemical, China) and 4 μM Fluo-4 (AAT bioquest, U.S.A.) for 37°C for 30 min with vortex every 5 min. After being washed with HHBS, cells were suspended in PBS at 2 × 10^6/ml and seeded 200 μl cells and various concentrations of compounds per well in 96-well plate. Following 50 nM SDF-1α was added to each well, the fluorescence intensity was measured (Ex/Em = 496/516 nm) using EnSpire® multimode plate reader (PerkinElmer, U.S.A.).
A general note: Calcium flux is commonly read through the fluorescence of an indicator in the cells.

The target in test [4] is T1, CXCR4. The experiment in a line: CXCR4-mediated internalization assay, CHO cells expressing CXCR4-EGFP (confocal). The format is cell-based. Set-up: expressed in transfected cells. Conditions: at 100 and 10 μM; SDF-1α-induced. How it is done: Figure 3 The inhibitory effect of the antagonists on CXCR4 internalization CHO cells expressed CXCR4-EGFP conjugates were seeded in 96-well plate with glass bottom. Untreated cells were used as a control. Cells were pre-treated with or without CXCR4 antagonists and internalized with 50 nM SDF-1α (scale bar: 5 μm). The concentrations of the antagonists used were the same as those for the calcium mobilization assay shown above. The data shown were representative of three independent experiments.
CXCR4 and EGFP were amplified using a primer shown in Supplementary Table S1. The pcDNA3 vector was digested by restriction-enzyme EcoR1 and Apa1. CXCR4 was digested by restriction-enzyme EcoR1 and Xba1. EGFP was digested by restriction-enzyme Xba1 and Apa1. CXCR4–EGFP conjugate was constructed by ligation of three DNA fragments using T4 ligase. The vector containing CXCR4 ligated EGFP at the C-terminus was transfected and expressed in CHO cells in 100 μl DMEM medium supplemented with 2% FBS at 1 × 10^5/ml which was seeded in 96-well black plate glass bottom and incubated at 37°C overnight. Following incubation with tested compounds for 10 min, 50 nM of SDF-1α was added to each well and the internalized CXCR4 was observed using a confocal microscopy (Zeiss LSM880).

The subject of test [5] is CXCR4 mutants. Briefly: Mutational analysis of HM70116 binding to CXCR4 mutants compared with DV3. The settings on record: mutants F87A, W94A, Y116A, T117A, D171A, W195A, Y255A, D262N, H281A; three independent experiments with duplicate values.
From the text: Figure 10 The mutational analysis and molecular modeling of HM70116 interaction with CXCR4 (A) Mutational analysis of HM70116 interaction with CXCR4 binding pocket. The data was averaged from three independent experiments with duplicate values. The data were shown as mean ± standard error of the mean (S.E.M.). (B) MD simulation of HM70116-CXCR4 complex. (C) Binding mode of the N-terminus of vMIP-II in the CXCR4-binding pocket.
as §1

For test [6], the system named is X4-tropic HIV. The settings on record: read-out: IC50, block of X4-tropic HIV infection via CXCR4; cited from earlier work. An excerpt:
(§3) To understand the receptor–ligand recognition mechanism involving CXCR4 and its antagonists, here in this study we conducted a series of comparative analyses of the biological activities and CXCR4 binding sites of eleven known CXCR4 antagonists, including the three mentioned above, using cell-based bioassays, CXCR4 site-directed mutagenesis and computer-aided molecular modeling. These antagonists studied here were chosen from different representative structural types including both D-peptides (i.e., HC4319, DV1, DV1 dimer, and DV3) and a representative counterpart L-peptide (i.e., V1) derived ...

In test [7] the test system is CXCR4. Conditions: read-out: Competitive binding IC50; cited from earlier work.
From the text: as §3

Setting [8] is: CXCR4 transfected CHO cells, 250 ng/ml 12G5, 40 min on ice, FITC second antibody, mean ± S.E.M. of at least three independent experiments, SEM, read-out: IC50 (nM), inhibition of 12G5 binding to CXCR4.

Usually IC50 stands for the midpoint of a concentration-inhibition curve. One may read the inhibition as the relative decrease from the control value, in per cent.

T1 sequence (P61073 whole entry): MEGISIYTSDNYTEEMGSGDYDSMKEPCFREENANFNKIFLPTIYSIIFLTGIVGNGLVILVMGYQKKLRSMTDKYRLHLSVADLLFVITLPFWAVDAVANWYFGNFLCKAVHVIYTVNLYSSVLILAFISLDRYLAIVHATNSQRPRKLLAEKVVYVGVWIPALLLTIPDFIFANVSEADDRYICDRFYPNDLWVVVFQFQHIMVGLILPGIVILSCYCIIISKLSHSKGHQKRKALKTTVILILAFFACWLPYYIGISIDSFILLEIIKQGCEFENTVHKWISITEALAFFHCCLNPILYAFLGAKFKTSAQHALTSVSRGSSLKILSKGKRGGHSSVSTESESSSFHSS

In the case of `N=C(N)NCCC[C@H](NC(=O)[C@@H]1CSSC[C@H](NC(=O)[C@H](Cc2ccc3ccccc3c2)NC(=O)[C@H](CCCNC(=N)N)NC(=O)[C@@H](N)CCCNC(=N)N)C(=O)N[C@@H](Cc2ccc(O)cc2)C(=O)N[C@@H](CCC(N)=O)C(=O)N[C@@H](CCCCN)C(=O)N2CCC[C@@H]2C(=O)N2CCC[C@H]2C(=O)N[C@@H](Cc2ccc(O)cc2)C(=O)N[C@@H](CCCNC(=N)N)C(=O)N[C@@H](CCCNC(N)=O)C(=O)N1)C(=O)NCC(=O)N1CCC[C@@H]1C(=O)O` [CVX15] (H-RR[2Nal]CYQK[dP]PYR[Cit]CRG[dP]-OH; disulfide 4-13), the IC50 in test [1] (setting [8]) worked out at 7.8 ± 2.2 nM. In test [2] (SUP-T1, at 20 nM), testing at 0.02 µM gave an inhibition of 65%.

In test [2], `CC(C)C[C@@H](N)C(=O)NCC(=O)N[C@H](C)C(=O)N[C@H](CO)C(=O)N[C@H](Cc1c[nH]c2ccccc12)C(=O)N[C@H](Cc1c[nH]cn1)C(=O)N[C@H](CCCNC(=N)N)C(=O)N1CCC[C@@H]1C(=O)N[C@H](CC(=O)O)C(=O)N[C@H](CCCCN)C(=O)N[C@H](CS)C(=O)N[C@H](CS)C(=O)N[C@H](CC(C)C)C(=O)NCC(=O)N[C@H](Cc1ccc(O)cc1)C(=O)N[C@H](CCC(N)=O)C(=O)N[C@H](CCCCN)C(=O)N[C@H](CCCNC(=N)N)C(=O)N1CCC[C@@H]1C(=O)N[C@H](CC(C)C)C(=O)N1CCC[C@@H]1C(N)=O` [DV1] (H-[dL]G[dA][dS][dW][dH][dR][dP][dD][dK][dC][dC][dL]G[dY][dQ][dK][dR][dP][dL][dP]-NH2) displayed an inhibition at 40 µM of 78%. Further, the inhibition at 10 µM in test [3] came out at 86%.

`CC(C)C[C@@H](N)C(=O)NCC(=O)N[C@H](C)C(=O)N[C@H](CO)C(=O)N[C@H](Cc1c[nH]c2ccccc12)C(=O)N[C@H](Cc1c[nH]cn1)C(=O)N[C@H](CCCNC(=N)N)C(=O)N1CCC[C@@H]1C(=O)N[C@H](CC(=O)O)C(=O)N[C@H](CCCCN)C(=O)O` [DV3] (H-[dL]G[dA][dS][dW][dH][dR][dP][dD][dK]-OH): testing at 40 µM in test [2] gave an inhibition of 13%. Further, the inhibition at 10 µM in test [3] is roughly 55%.

For the molecule `CC(C)C[C@@H](N)C(=O)NCC(=O)N[C@H](C)C(=O)N[C@H](CO)C(=O)N[C@H](Cc1c[nH]c2ccccc12)C(=O)N[C@H](Cc1c[nH]cn1)C(=O)N[C@H](CCCNC(=N)N)C(=O)N1CCC[C@@H]1C(=O)N[C@H](CC(=O)O)C(=O)N[C@H](CCCCN)C(=O)N[C@H](CCCNC(=N)N)C(=O)N[C@H](CCCNC(=N)N)C(=O)O` [HM12] (H-[dL]G[dA][dS][dW][dH][dR][dP][dD][dK][dR][dR]-OH), the IC50 in test [1] (SEM) was found to be 544 ± 75 nM.

For the molecule `CC(C)C[C@@H](NC(=O)[C@@H](CCCNC(=N)N)NC(=O)[C@H](N)CCCCN)C(=O)NCC(=O)N[C@H](C)C(=O)N[C@H](CO)C(=O)N[C@H](Cc1c[nH]c2ccccc12)C(=O)N[C@H](Cc1c[nH]cn1)C(=O)N[C@H](CCCNC(=N)N)C(=O)N1CCC[C@@H]1C(=O)N[C@H](CC(=O)O)C(=O)N[C@H](CCCCN)C(=O)O` [HM60303] (H-[dK][dR][dL]G[dA][dS][dW][dH][dR][dP][dD][dK]-OH; N-terminus and C-terminus assumed), in test [1], the IC50 is greater than 50000 nM.

As to `CC(C)C[C@@H](N)C(=O)NCC(=O)N[C@H](C)C(=O)N[C@H](CO)C(=O)N[C@H](Cc1c[nH]c2ccccc12)C(=O)N[C@H](Cc1c[nH]cn1)C(=O)N[C@H](CCCNC(=N)N)C(=O)N1CCC[C@@H]1C(=O)N[C@H](CC(=O)O)C(=O)N[C@H](CCCCN)C(=O)N[C@H](CCCNC(=N)N)C(=O)O` [HM60323] (H-[dL]G[dA][dS][dW][dH][dR][dP][dD][dK][dR]-OH), in test [1] (SEM), the IC50 came out at 707 ± 143 nM.

In the case of `CC(C)C[C@@H](N)C(=O)NCC(=O)N[C@H](C)C(=O)N[C@H](CO)C(=O)N[C@H](Cc1c[nH]c2ccccc12)C(=O)N[C@H](Cc1c[nH]cn1)C(=O)N[C@H](CCCNC(=N)N)C(=O)N1CCC[C@@H]1C(=O)N[C@H](Cc1ccc2ccccc2c1)C(=O)N[C@H](CCCNC(=N)N)C(=O)N[C@H](CCCNC(=N)N)C(=O)O` [HM70116] (H-[dL]G[dA][dS][dW][dH][dR][dP][d2Nal][dR][dR]-OH; N-terminus and C-terminus assumed), in test [4], the “Inhibition of CXCR4 internalization (in words)” value was “effectively prevented CXCR4 internalization”. Besides, the “Reduction in binding to CXCR4 mutants relative to DV3 (in words)” value in test [5] is listed as “greater than DV3”. Also, the “Inhibition of intracellular calcium mobilization (in words)” value in test [3] (1 μM pretreatment, SDF-1α-induced) was “potently inhibited”.

Take `CC1(C)CN2C(CSC(=NC3CCCCC3)NC3CCCCC3)=CSC2=N1` [IT1t]: the IC50 in test [6] was 7 nM; in test [7], […].

As to `CC(C)C[C@H](NC(=O)[C@H](CS)NC(=O)[C@H](CS)NC(=O)[C@H](CCCCN)NC(=O)[C@H](CC(=O)O)NC(=O)[C@@H]1CCCN1C(=O)[C@H](CCCNC(=N)N)NC(=O)[C@H](Cc1c[nH]cn1)NC(=O)[C@H](Cc1c[nH]c2ccccc12)NC(=O)[C@H](CO)NC(=O)[C@H](C)NC(=O)CNC(=O)[C@@H](N)CC(C)C)C(=O)NCC(=O)N[C@@H](Cc1ccc(O)cc1)C(=O)N[C@@H](CCC(N)=O)C(=O)N[C@@H](CCCCN)C(=O)N[C@@H](CCCNC(=N)N)C(=O)N1CCC[C@H]1C(=O)N[C@@H](CC(C)C)C(=O)N1CCC[C@H]1C(=O)O` [V1] (H-LGASWHRPDKCCLGYQKRPLP-OH), the 50% inhibitory concentration (IC50) in test [1] (setting [8]) was found to be 2630 ± 891 nM. The molecule further had an inhibition at 40 µM in test [2] of 68%.
